This is an account of results in ChEMBL document CHEMBL2150992, “Synthesis of quinoline derivatives for fluorescent imaging certain bacteria” (Bioorg Med Chem Lett, 2012).

Calls of active or inactive are those of the source. The rule behind the calls is not given here.

What all share (format): functional, organism-based
The subject of assay [1] is Bacillus subtilis. The assay is described as follows: Binding affinity to Bacillus subtilis at 0.0781 mM after 10 mins by fluorescence microscopy.
The test system of assay [2] is Staphylococcus aureus. The experiment in a line: Binding affinity to Staphylococcus aureus at 0.0781 mM after 10 mins by fluorescence microscopy.
In assay [3] the test system is Escherichia coli. The experiment in a line: Binding affinity to Escherichia coli at 0.0781 mM after 10 mins by fluorescence microscopy.
The test system of assay [4] is Bacillus subtilis. The experiment in a line: Binding affinity to Bacillus subtilis at 0.0781 mM after 1 day by fluorescence microscopy.
Assay [5] deals with Staphylococcus aureus. The experiment in a line: Binding affinity to Staphylococcus aureus at 0.0781 mM after 1 day by fluorescence microscopy.
Assay [6] deals with Escherichia coli. The experiment in a line: Binding affinity to Escherichia coli at 0.0781 mM after 1 day by fluorescence microscopy.

`O=C1CCCN1[C@H]1C[C@@H](c2cc3ccccc3c3ccccc23)Nc2ccccc21` (relative stereo): the outcome in assay [1] and in assay [2] was Active. Moreover, the outcome in assay [3] was inactive.

For `O=C1CCCN1c1cc(-c2cc3ccccc3c3ccccc23)nc2ccccc12`, the outcome in assay [4], in assay [5], in assay [6], in assay [1], in assay [2] and in assay [3] was Active.

Consider `O=C1CCCN1[C@H]1C[C@@H](c2cc3ccccc3c3ccccc23)Nc2ccc(Cl)cc21` (relative stereo), for which the outcome in assay [1] was Active. Also, the result in assay [2] and in assay [3] was inactive.

Consider `O=C1CCCN1[C@H]1C[C@@H](c2cc3ccccc3c3ccccc23)Nc2ccc(Br)cc21` (relative stereo), for which the result in assay [1] and in assay [2] was inactive. For the same molecule, the outcome in assay [3] was Active.

`N#Cc1ccc2nc(-c3cc4ccccc4c4ccccc34)cc(N3CCCC3=O)c2c1`: the result in assay [4], in assay [5], in assay [6], in assay [1], in assay [2] and in assay [3] was Active.

As to `COc1ccc2nc(-c3cc4ccccc4c4ccccc34)cc(N3CCCC3=O)c2c1`, the outcome in assay [4], in assay [5], in assay [6], in assay [1] and in assay [3] was Active. Moreover, the outcome in assay [2] was inactive.

Consider `c1ccc2c(c1)N[C@@H](c1cc3ccccc3c3ccccc13)C1CCCOC21` (stereo not given in full), for which the result in assay [1] and in assay [3] was inactive. Besides, in assay [2], the outcome was Active.

With `CCCCc1ccc2c(c1)[C@@H](N1CCCC1=O)C[C@@H](c1cc3ccccc3c3ccccc13)N2` (relative stereo), the result in assay [1] and in assay [3] was inactive. Besides, the result in assay [2] was Active.

For the molecule `N#Cc1ccc2c(c1)[C@@H](N1CCCC1=O)C[C@@H](c1cc3ccccc3c3ccccc13)N2` (mixture of isomers), the outcome in assay [1] and in assay [2] was Active. Moreover, the outcome in assay [3] was inactive.

In the case of `COc1ccc2c(c1)[C@@H](N1CCCC1=O)C[C@@H](c1cc3ccccc3c3ccccc13)N2` (relative stereo), the result in assay [1], in assay [2] and in assay [3] was Active.

Consider `c1ccc2c(c1)N[C@H](c1cc3ccccc3c3ccccc13)C1CCCOC21` (stereo not given in full), for which the outcome in assay [1] and in assay [3] was inactive. In assay [2], the outcome was Active.

For the molecule `CCCCc1ccc2nc(-c3cc4ccccc4c4ccccc34)cc(N3CCCC3=O)c2c1`, the outcome in assay [4], in assay [5], in assay [6], in assay [1] and in assay [2] was Active. For the same molecule, the result in assay [3] was inactive.

For `O=C1CCCN1c1cc(-c2cc3ccccc3c3ccccc23)nc2ccc(Br)cc12`, the result in assay [4], in assay [5], in assay [6], in assay [1] and in assay [2] was Active. Moreover, the result in assay [3] was inactive.

For the molecule `O=C1CCCN1c1cc(-c2cc3ccccc3c3ccccc23)nc2ccc(Cl)cc12`, the outcome in assay [4], in assay [5], in assay [6], in assay [1], in assay [2] and in assay [3] was Active.
